Experimental data as given in patent publication US11963936B2, “Method of manufacturing stable emulsions and compositions containing the same” (UNIVERSITY OF FLORIDA RESEARCH FOUNDATION, INC., priority 2013, dated 2024).

Columns and labels:
[1] = Creaming / visual shelf stability of emulsions (serum height); format: physicochemical; conditions: 10 wt % oil; for ability of the oil to yield stable emulsions: 1 wt % drug; for time to begin creaming: emulsions of 1 wt % propofol, 1 wt % Pluronic F68
Procedure: About 10 mL of each emulsion was placed in a 20 mL vial and left undisturbed on a lab bench to explore each emulsion's stability to creaming. Creaming is an instability mechanism where lower density oil droplets rise to the top of the system forming a cream layer with a more clear serum layer below. The emulsions were photographed periodically with a digital camera (Panasonic DMC FH25), and the photographs were analyzed using image processing software (ImageJ) to quantify the degree of creaming. The height of each emulsion phase was measured in number of pixels, and the percentage serum was calculated from the serum height divided by the total emulsion height. The time at which creaming was first observed was used as a measure of each emulsion's stability, and the time at which the emulsion had completely creamed was noted if applicable. A creaming time longer than two years is desired to be considered a commercially viable pharmaceutical emulsion.
Preliminary screening of emulsion stability was conducted by leaving emulsions undisturbed on a shelf and making visual observations at various times. The initial images of the two formulations for each of the five excipient oils are included in the top row of FIG. 3.
Images of the emulsions were digitally measured to determine the serum height as a function of time for all the emulsion systems (FIG. 3). A stable system should not separate into cream and serum phases, so the time at which serum is first observed is considered to be an approximate indicator of the degree of stability.

[2] = Oil-water partitioning of propofol in equilibrated bulk excipient oil/water mixtures; format: physicochemical; conditions: for Cfree: propofol in aqueous phase, 1 wt % drug
Procedure: Oil-water partition coefficients were calculated by equilibrating a mixture of propofol, water, and oil with mass fractions fdrug, faq, and foil, respectively. The drug loading was kept constant at 1 wt %, while oil loadings were chosen to be 5 or 15 wt %. Additional experiments were performed at 10 wt % excipient oil loading for ethyl butyrate and soybean oil because of the major focus on these oils in this work. The water phase was separated and assayed for propofol concentration (cf), and the partition coefficient was obtained from a mass balance, i.e., Mdrug=Vaqcf+KVoilcf (2) where K is the oil-water partition coefficient, Mdrug, Vaq and Voil are the […] and volumes of water and oil, respectively in the system. The mass balance yields the following equation for K:
[formula] where ρaq and ρoil are the densities of water and oil, respectively. Table 2 lists the molecular weight and densities of various oils considered, along with measured aqueous phase drug concentrations and calculated logarithmic oil-water partition coefficients.

[3] = Propofol partitioning in binary mixtures of excipient oils
Procedure: Experiments were performed to measure the drug partitioning of binary mixtures of excipient oils. 1 wt % drug loading and 10 wt % total excipient oil loading were maintained as the experimental basis of all the binary systems formed to compare with Diprivan. The relative fractions of excipient oil were varied between 100 wt % ethyl butyrate and 100 wt % soybean oil. […] These experiments were repeated by replacing soybean oil with olive oil.

[4] = cited from earlier work
[5] = oil-water partition coefficient of propofol, 5% excipient oil
[6] = oil-water partition coefficient of propofol, 15% excipient oil

SMILES | ability of the oil to yield stable emulsions [1] | Log10K [2, 5] | Log10K [2, 6] | Cfree ([2]; 5% excipient oil) | Cfree ([2]; 15% excipient oil) | partition coefficient of propofol compared to soybean oil [3] | log(K) ([2]; oil-water partition coefficient of propofol) | Log10K ([2]; oil-water partition coefficient of propofol, 10% excipient oil) | Cfree ([2]; 10% excipient oil) | time to begin creaming [1] | pKa [4]
CCCCCCCC(=O)O [Octanoic acid (OA), Octanoic acid] | did not yield stable emulsions | 3.65 | 3.76 | 33.5 mg/L | 10.0 mg/L | – | – | – | – | – | –
CCCC(=O)OCC [Ethyl butyrate (EB), Ethyl butyrate] | did not yield stable emulsions | 4.33 | 4.35 | 6.93 mg/L | 2.48 mg/L | about 4 fold | 4.3 | 4.32 | 4.60 ± 1.83 mg/L | – | –
CCCCCCCCCCCCCC(=O)OC(C)C [Isopropyl myristate (IM), Isopropyl myristate] | did not yield stable emulsions | 3.92 | 4.08 | 16.9 mg/L | 4.39 mg/L | – | – | – | – | several days or weeks | –
CCCCCCCCCCCCCCCC(=O)OC(C)C [Isopropyl palmitate (IP), Isopropyl palmitate] | did not yield stable emulsions | 3.71 | 4.01 | 28.1 mg/L | 5.17 mg/L | – | – | – | – | several days or weeks | –
CCCCCCCCCCCCCCCCCC(=O)O [stearic acid] | – | – | – | – | – | – | – | – | – | – | about 4.9
